Experimental data from ChEMBL document CHEMBL4627415, “Design and Structural Optimization of Dual FXR/PPARδ Activators” (J Med Chem, 2020).
pEC50: −log10 of the molar value. Activity calls are given as the source filed them. No cut-off for these calls is given here.

Columns and labels:
[1] = system: HepG2; assay: Toxicity in human HepG2 cells assessed as reduction in cell viability up to 100 uM incubated for 48 hrs by WST1 assay; assay type: cell-based; details: hepg2, 48 h
[2] = biological target: T1, Peroxisome proliferator-activated receptor delta (Mus musculus) (UniProt P35396); assay: Activation of PPARD in mouse C2C12 cells assessed as increase LpL mRNA expression at 3 uM incubated for 8 hrs by quantitative real time PCR analysis; assay type: cell-based
T1 sequence (whole entry): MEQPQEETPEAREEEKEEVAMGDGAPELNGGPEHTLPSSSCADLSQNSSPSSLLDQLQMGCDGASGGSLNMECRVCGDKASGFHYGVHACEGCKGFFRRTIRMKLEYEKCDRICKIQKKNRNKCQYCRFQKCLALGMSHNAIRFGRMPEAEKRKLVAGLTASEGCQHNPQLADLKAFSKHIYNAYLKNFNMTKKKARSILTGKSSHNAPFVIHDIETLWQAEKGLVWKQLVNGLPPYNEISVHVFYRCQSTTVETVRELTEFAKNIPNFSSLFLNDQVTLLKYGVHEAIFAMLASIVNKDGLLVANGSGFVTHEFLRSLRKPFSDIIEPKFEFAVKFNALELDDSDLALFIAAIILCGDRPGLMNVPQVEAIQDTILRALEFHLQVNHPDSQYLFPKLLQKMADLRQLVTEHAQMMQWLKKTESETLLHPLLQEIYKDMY

[3] = biological target: T2, Peroxisome proliferator-activated receptor delta (Homo sapiens, UniProt Q03181); assay: Activation of human PPAR-delta LBD expressed in HEK293T cells assessed as induction of receptor activation incubated for 12 to 14 hrs by luciferase reporter gene assay; assay type: cell-based, HEK-293T
T2 sequence (Q03181 whole entry): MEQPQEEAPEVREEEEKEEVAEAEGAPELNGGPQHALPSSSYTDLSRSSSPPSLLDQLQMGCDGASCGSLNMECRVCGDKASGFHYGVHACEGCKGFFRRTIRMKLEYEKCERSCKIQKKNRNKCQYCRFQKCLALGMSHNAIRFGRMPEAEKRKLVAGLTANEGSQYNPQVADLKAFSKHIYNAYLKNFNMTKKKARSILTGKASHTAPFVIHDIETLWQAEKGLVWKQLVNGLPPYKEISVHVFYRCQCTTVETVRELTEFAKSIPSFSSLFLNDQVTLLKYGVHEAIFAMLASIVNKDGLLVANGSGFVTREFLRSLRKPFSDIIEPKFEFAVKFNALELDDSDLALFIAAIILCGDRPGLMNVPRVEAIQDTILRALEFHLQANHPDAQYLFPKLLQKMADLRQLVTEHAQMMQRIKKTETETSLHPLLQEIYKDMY

[4] = biological target: T1, Peroxisome proliferator-activated receptor delta (Mus musculus); assay: Activation of PPARD in mouse C2C12 cells assessed as increase PCK mRNA expression at 3 uM incubated for 8 hrs by quantitative real time PCR analysis; assay type: cell-based
[5] = biological target: T3, Bile acid receptor (Homo sapiens, UniProt Q96RI1); assay: Activation of human FXR LBD expressed in HEK293T cells assessed as induction of receptor activation incubated for 12 to 14 hrs by luciferase reporter gene assay; assay type: cell-based, HEK-293T
T3 sequence (Q96RI1 whole entry): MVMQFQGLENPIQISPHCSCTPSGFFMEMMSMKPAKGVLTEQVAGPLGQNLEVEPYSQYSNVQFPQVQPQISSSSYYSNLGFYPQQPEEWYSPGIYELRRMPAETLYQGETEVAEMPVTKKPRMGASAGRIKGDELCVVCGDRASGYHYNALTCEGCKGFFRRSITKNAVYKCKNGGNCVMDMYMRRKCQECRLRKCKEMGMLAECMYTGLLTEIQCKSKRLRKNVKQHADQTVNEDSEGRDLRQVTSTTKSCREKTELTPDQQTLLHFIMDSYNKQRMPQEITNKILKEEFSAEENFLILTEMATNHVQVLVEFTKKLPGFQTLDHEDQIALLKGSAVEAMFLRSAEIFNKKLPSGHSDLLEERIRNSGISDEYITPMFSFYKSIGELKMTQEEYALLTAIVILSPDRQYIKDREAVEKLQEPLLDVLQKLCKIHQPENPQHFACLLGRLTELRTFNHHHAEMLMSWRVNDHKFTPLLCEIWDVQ

[6] = biological target: T4, Bile acid receptor (Homo sapiens) (UniProt Q96RI1); assay: Activation of FXR in human HepG2 cells assessed as decrease in CYP7A1 mRNA expression at 3 uM incubated for 8 hrs by quantitative real time PCR analysis; assay type: cell-based
T4 sequence (whole entry): T3 sequence (Q96RI1 whole entry)

[7] = biological target: T4, Bile acid receptor (Homo sapiens); assay: Activation of human FXR LBD expressed in HEK293T cells assessed as induction of receptor activation at 1 to 3 uM incubated for 12 to 14 hrs by luciferase reporter gene assay; assay type: cell-based; details: HEK-293T
[8] = biological target: T5, Peroxisome proliferator-activated receptor gamma (Homo sapiens) (UniProt P37231); assay: Activation of human PPAR-gamma LBD expressed in HEK293T cells assessed as induction of receptor activation at 10 uM incubated for 12 to 14 hrs by luciferase reporter gene assay; assay type: cell-based; details: HEK-293T
T5 sequence (whole entry): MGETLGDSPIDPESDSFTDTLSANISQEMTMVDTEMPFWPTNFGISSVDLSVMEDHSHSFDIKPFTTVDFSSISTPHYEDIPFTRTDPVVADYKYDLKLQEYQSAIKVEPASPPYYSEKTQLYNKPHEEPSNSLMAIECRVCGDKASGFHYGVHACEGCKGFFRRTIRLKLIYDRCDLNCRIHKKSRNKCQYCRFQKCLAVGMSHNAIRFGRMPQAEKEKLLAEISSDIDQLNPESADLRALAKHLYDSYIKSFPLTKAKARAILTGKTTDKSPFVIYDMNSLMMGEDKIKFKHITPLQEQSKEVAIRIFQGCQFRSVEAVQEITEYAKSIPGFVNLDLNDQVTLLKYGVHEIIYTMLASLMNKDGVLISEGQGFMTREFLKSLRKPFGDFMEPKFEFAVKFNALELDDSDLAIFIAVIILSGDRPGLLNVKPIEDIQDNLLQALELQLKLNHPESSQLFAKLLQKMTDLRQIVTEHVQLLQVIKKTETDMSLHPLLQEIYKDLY

[9] = biological target: T6, Peroxisome proliferator-activated receptor delta (Homo sapiens) (UniProt Q03181); assay: Activation of human PPAR-delta LBD expressed in HEK293T cells assessed as induction of receptor activation at 1 uM incubated for 12 to 14 hrs by luciferase reporter gene assay relative to L165,041; assay type: cell-based; details: HEK-293T
T6 sequence (whole entry): T2 sequence (Q03181 whole entry)

Activity [2]: Active
pEC50 [3]: 5.82
Activity [4]: Active
pEC50 [5]: 6.03
Activity [6]: Active
Activity [7]: Active
Activity [8]: inactive
%max [9]: 17%
Structure (SMILES): CC(C)c1onc(-c2c(Cl)cccc2Cl)c1COc1ccc(CNc2ccc(CC(=O)O)cc2)c(Cl)c1
Activity [1]: Non-Toxic
